From PubChem BioAssay (NCI)
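Five concentrations, 48 hours, 96-well plates. Here, GI50 denotes the concentration required for 50% inhibition of growth. TGI: total growth inhibition.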 Where a SMILES comes first, the peptide text is derived from it.

Legend:
Test in all cases: inhibition of tumour cell growth, NCI panel, 48 h
TK-10 renal = system: TK-10 renal
SR leukemia = system: SR leukemia
HOP-92 NSCLC = system: HOP-92 NSCLC
SF-268 CNS = system: SF-268 CNS
CAKI-1 renal = system: CAKI-1 renal
OVCAR-5 ovarian = system: OVCAR-5 ovarian
786-0 renal = system: 786-0 renal
NCI-H522 lung = system: NCI-H522 lung
OVCAR-8 ovarian = system: OVCAR-8 ovarian

Row | SMILES | TGI (TK-10 renal) | TGI (SR leukemia) | TGI (HOP-92 NSCLC) | TGI (SF-268 CNS) | TGI (CAKI-1 renal) | TGI (OVCAR-5 ovarian) | TGI (786-0 renal) | TGI (NCI-H522 lung) | TGI (OVCAR-8 ovarian) | GI50 (NCI-H522 lung) | GI50 (TK-10 renal) | GI50 (SR leukemia) | GI50 (SF-268 CNS) | GI50 (CAKI-1 renal) | GI50 (OVCAR-8 ovarian) | GI50 (OVCAR-5 ovarian) | GI50 (786-0 renal)
1 | O=C(CC1(O)C(=O)Nc2ccccc21)c1ccc(O)cc1 (centres undefined) | > 100 µM | > 100 µM | > 100 µM | > 100 µM | > 100 µM | > 100 µM | > 100 µM | – | – | – | – | – | – | – | – | – | –
2 | CN[C@@H](C)[C@H](N)c1ccccc1 | > 100 µM | – | > 100 µM | – | > 100 µM | – | > 100 µM | > 100 µM | > 100 µM | – | – | – | – | – | – | – | –
3 | CCC(C)C1NC(=O)C2CCCN2C(=O)CNC(=O)C(C)NC(=O)C(Cc2ccccc2)NC(=O)C(C(C)C)NC1=O (centres undefined) (cyclo(GPIVFA); configuration not given here) | > 100 µM | > 100 µM | > 100 µM | > 100 µM | > 100 µM | > 100 µM | > 100 µM | – | > 100 µM | – | – | – | – | – | – | – | –
4 | COC(=O)C1C=NNC1C(=O)OC (centres undefined) | > 100 µM | – | – | > 100 µM | > 100 µM | > 100 µM | > 100 µM | > 100 µM | > 100 µM | – | – | – | – | – | – | – | –
5 | C=C1C2CC(OC(C)=O)C3(C)C(c4ccoc4)OC(=O)[C@@H](O)[C@]13OC1C[C@H](OC(C)=O)C(C)(C)[C@H](CC(=O)OC)[C@]12C (some centres undefined) | > 100 µM | – | > 100 µM | – | – | – | > 100 µM | – | > 100 µM | – | – | – | – | – | – | – | –
6 | CC1=C(C(=O)Nc2ccc([N+](=O)[O-])cc2)C(c2ccc3c(c2)OCO3)C(C(=O)Nc2ccc([N+](=O)[O-])cc2)=C(C)N1 | – | – | 38.9 µM | > 100 µM | > 100 µM | > 100 µM | > 100 µM | > 100 µM | 27.9 µM | – | – | – | – | – | – | – | –
7 | COC(=O)N/N=C(/CCC(=O)Nc1ccc(C)c(C)c1)CC(=O)C(C)(C)C | > 100 µM | – | – | > 100 µM | > 100 µM | > 100 µM | > 100 µM | > 100 µM | > 100 µM | – | – | – | – | – | – | – | –
8 | O=[N+]([O-])c1cc(Cl)ccc1OCc1ccccc1 | > 100 µM | > 100 µM | 92.5 µM | > 100 µM | – | – | > 100 µM | – | > 100 µM | – | – | – | – | – | – | – | –
9 | CCOC(=N)CC(=O)Nc1cccc(Cl)c1 | > 100 µM | > 100 µM | – | > 100 µM | > 100 µM | > 100 µM | > 100 µM | > 100 µM | > 100 µM | – | – | – | – | – | – | – | –
10 | Cc1ccc(C2=Nc3c(N)ncnc3NC(c3ccc4c(c3)OCO4)C2)cc1 (centres undefined) | 21.1 µM | 3.85 µM | – | 16.3 µM | 19.1 µM | > 100 µM | > 100 µM | 23.2 µM | > 100 µM | 3.67 µM | 4.47 µM | 0.249 µM | 4.06 µM | 1.44 µM | 13.5 µM | 32.1 µM | > 100 µM
11 | CC(=O)[CH-]C(=O)c1ccccc1.CC(=O)[CH-]C(=O)c1ccccc1.Cl.[O-]c1ccccn1.[O-]c1ccccn1.[Ti+4] | – | – | – | > 100 µM | > 100 µM | > 100 µM | > 100 µM | > 100 µM | > 100 µM | > 100 µM | – | – | > 100 µM | > 100 µM | > 100 µM | > 100 µM | > 100 µM
12 | CNS(=O)(=O)NN(C)S(=O)(=O)c1ccc2ccccc2c1 | > 100 µM | > 100 µM | – | – | > 100 µM | – | > 100 µM | > 100 µM | > 100 µM | – | – | – | – | – | – | – | –
13 | CC1C[C@]2(C[C@@H](C)C(=O)O2)O[C@@H]2CC3(C)[C@@H]4CCC5C(C)(C)OC(=O)C[C@H]6OO[C@]4(CC[C@]3(C)C12)CC56O (some centres undefined) | > 100 µM | > 100 µM | – | – | – | > 100 µM | > 100 µM | > 100 µM | > 100 µM | – | – | – | – | – | – | – | –
14 | O=[N+]([O-])c1ccc(/C=C/c2csnn2)cc1 | > 100 µM | – | > 100 µM | > 100 µM | > 100 µM | > 100 µM | > 100 µM | > 100 µM | > 100 µM | – | – | – | – | – | – | – | –
15 | O=c1c(Br)cc2c(-c3ccccc3)c3cc(Br)c(O)c(Br)c3oc-2c1Br | > 100 µM | – | > 100 µM | > 100 µM | > 100 µM | > 100 µM | > 100 µM | – | > 100 µM | – | – | – | – | – | – | – | –
16 | Cc1ccc(NC(=S)SCCC(=O)O)cc1 | > 100 µM | > 100 µM | – | > 100 µM | > 100 µM | > 100 µM | > 100 µM | > 100 µM | > 100 µM | – | – | – | – | – | – | – | –
17 | COc1cc2c(cc1OC)NC(=O)NC(Cc1ccc3c(c1)OCO3)CC2 (centres undefined) | > 100 µM | – | > 100 µM | > 100 µM | > 100 µM | > 100 µM | > 100 µM | 76.2 µM | > 100 µM | – | – | – | – | – | – | – | –
18 | C=CC1(NS(=O)(=O)c2ccc(C)cc2)CCC(C(C)(C)C)CC1 (centres undefined) | > 100 µM | > 100 µM | – | > 100 µM | > 100 µM | – | > 100 µM | > 100 µM | > 100 µM | – | – | – | – | – | – | – | –
19 | Cc1cccc(N2C(=O)C(=O)C(c3nc4ccccc4s3)/C(=N/NC(=S)NN)C2=O)c1C (centres undefined) | > 100 µM | – | > 100 µM | > 100 µM | > 100 µM | > 100 µM | > 100 µM | > 100 µM | > 100 µM | – | – | – | – | – | – | – | –
20 | CCOC(=O)[C@H]1Nc2ccc([N+](=O)[O-])cc2C2c3ccccc3CC21 (some centres undefined) | 77.3 µM | > 100 µM | – | 38.5 µM | > 100 µM | 70.4 µM | 43.9 µM | 29.3 µM | 56.1 µM | – | – | – | – | – | – | – | –
